In ChEMBL document CHEMBL3507680, “University of Dundee, Gates Library screen for HepG2 cell viability”:

Assay: Human HepG2 cell viability assay in 384 well format
Assay type: toxicity, cell-based
Set-up: dose 125 nL, time 70.5 hour; concentration not given beside the values
Details: HepG2 cells, read-out: Inhibition

Row | Compound | cytotoxicity at 70.5 h
1 | O=C(c1ccccc1F)N1CCN(CCCn2cncn2)CC1 | -5.46%
2 | O=C1NCCN(Cc2ccccc2)C1CC(=O)N1CCc2n[nH]cc2C1 (centres undefined) | 19.3%
3 | CN(C)Cc1cc(=O)n2c(n1)CN(C(=O)Cc1cccs1)CCC2 | 1.23%
4 | c1ccc(N2CCN(Cc3cnc(C4CCCCO4)nc3)CC2)nc1 (centres undefined) | -4.5%
5 | CC1(C)CN(C(=O)CC2CCC2)C[C@]1(C)O | -2.02%
6 | CCNC(=O)CN1CCOC(c2ccccc2C(F)(F)F)C1 (centres undefined) | 0.292%
7 | CCc1cc(=O)[nH]c(-c2ccc(NCCC(C)O)nc2)n1 (centres undefined) | -5.98%
8 | Cc1cc(N2CCC(Cc3ccccc3)CC2)ncn1 | -11.5%
9 | CCN(CCNC(=O)C1CCN(C(C)=O)CC1)c1ccccc1C | -12.4%
10 | Cc1nc(CNC(C(=O)N2CCOCC2)c2ccccc2)cs1 (centres undefined) | -6.01%
11 | O=C(c1ccc2c(c1)CCCC2)N1CCN(c2cnccn2)CC1 | -11.8%
12 | CC(CNC(=O)Nc1ccc(C#N)cc1)N1CCc2ccccc21 (centres undefined) | 4.28%
13 | COc1ccc(C(=O)N2C[C@@H](O)[C@H](NCCc3ncccc3C)C2)cc1 | -10.6%
14 | COC(=O)c1ccc(Cl)c(CN(C)Cc2ncnn2C)c1 | 1.01%
15 | Cc1ccc(CNCC2CCN(CC(O)c3ccccc3)CC2)o1 (centres undefined) | -1.65%
16 | CN(CCCc1cc(-c2ccccc2)n[nH]1)C(=O)CCCn1cncn1 | -6.04%
17 | CCOC(=O)c1sc(NC(=O)CN2C(=O)CCC2=O)c(C#N)c1C | 31.1%
18 | COc1ccc(C(=O)C2CCCN(Cc3ccncc3)C2)c(OC)c1 (centres undefined) | -9.3%
19 | Cc1nccc(-c2cccc(NCC(=O)N3CCOCC3)c2)n1 | -4.16%
20 | CC(C)N(CC(=O)Nc1cccc(C(=O)N(C)C)c1)C1CC1 | 7.53%
21 | C=C(C)COc1cccc(CNC(CC(C)C)c2ncnn2C)c1 (centres undefined) | -3.16%
22 | Cc1ncc2c(c1C(=O)O)CCN(c1ncc(F)cn1)C2 | -0.54%
23 | CC(Cn1cccn1)NC(=O)c1cc(C2CC2)nc2c1cnn2C (centres undefined) | -9.86%

Row | Compound | cytotoxicity at 70.5 h
24 | Cc1ccccc1CSc1ncccc1C(=O)N(C)C | -2.93%
25 | NC(=O)C1(CCCc2cccnc2)CCCN(c2ncccn2)C1 (centres undefined) | -13.9%
26 | Cc1ccc(C(=O)N2CCC3(CCN3c3ncccn3)C2)cn1 (centres undefined) | -1.31%
27 | CCn1c(Cn2cncn2)nnc1C1CCN(C2CCOCC2)CC1 | 34.9%
28 | Cc1ccc(-c2nc(CC(=O)NCC(C)N3CCOCC3)cs2)o1 (centres undefined) | -3.4%
29 | Cc1cccc(CN(C(=O)NCc2ccccn2)C2CC2)c1 | -8.28%
30 | COc1ccc(F)cc1C(=O)C1CCCN(Cc2cnc(C)s2)C1 (centres undefined) | -11.8%
31 | CN(Cc1ccc(O)cc1)C(=O)NC1CCCN(c2ncccn2)C1 (centres undefined) | -3.14%
32 | Cn1cc(CN2CCCC3(CCN(c4nncs4)C3)C2)cn1 (centres undefined) | -0.185%
33 | OC[C@@H](O)CN(CCC(F)(F)F)c1ncc(Br)cn1 | 14.1%
34 | COC1COC2(CCN(C(=O)c3cocn3)CC2)C1 (centres undefined) | -8.06%
35 | O=C(c1cnccn1)N1CCC(Oc2ncccc2Cl)CC1 | 4.06%
36 | CCOC(=O)CCC(=O)N1CC(c2nc(Cc3ccccc3)no2)C1 | -6.9%
37 | CNC(=O)CS(=O)(=O)Cc1ccc(OC)c(F)c1 | -11.9%
38 | O=S(=O)(NCC(O)c1ccoc1)c1ccc(Br)s1 (centres undefined) | -1.32%
39 | Cc1nnc(NC(=O)CN(C)CC2CCCN2c2cccnn2)s1 (centres undefined) | 18.3%
40 | CC(C)(C)OC(=O)NC1CCC(NC(=O)c2ccc[nH]2)CC1 (centres undefined) | -6.62%
41 | Cn1cccc1C(CNC(=O)COc1ccc(Cl)cc1Cl)N1CCCC1 (centres undefined) | -16.7%
42 | c1cn(Cc2nnc(C3CCN(C4CCOCC4)CC3)n2C2CC2)cn1 | -4.93%
43 | CC1(NC(=O)Cc2cccs2)CCS(=O)(=O)C1 (centres undefined) | -85.8%
44 | O=C(c1ncoc1-c1ccco1)N1CCCN(c2nccs2)CC1 | -2.69%
45 | CN(C)CCn1c(=O)oc2ccc(NC(=O)c3cc(Cl)c[nH]3)cc21 | -2.49%
46 | CC(NC(=O)CCC(C)(C)C)C(=O)Nc1ccc(-n2cncn2)cc1 (centres undefined) | -24.9%

Row | Compound | cytotoxicity at 70.5 h
47 | CCN1CC2(CCN(CC3CCCO3)CC2)OC1=O (centres undefined) | -2.54%
48 | CC(C)C(NC(=O)N1CCN(c2ccc(Cl)cc2)CC1)C(=O)NC1CC1 (centres undefined) | -6.65%
49 | CC(C)NC(=O)NCc1cc(-c2cccc(Cl)c2)nn1C | 7.95%
50 | Cn1nccc1NC(=O)c1cccc(CN2C[C@H]3CC[C@@H](C2)N3)c1 | -1.03%
51 | CCN1CCOC(CNCc2ccccc2OCc2ccccn2)C1 (centres undefined) | 1.15%
52 | O=C(Nc1ccccn1)C1CCN(Cc2cccc3c2OCCO3)CC1 | 27.9%
53 | Cc1ccc(-n2ncc(C(=O)N3CCCC3c3cnn(C)c3)c2C)cc1 (centres undefined) | 11.4%
54 | CCn1ccnc1CN1CCNCC1C (centres undefined) | -5.16%
55 | Cn1c(Cn2ccnc2)nnc1C1CCCN(c2ncccn2)C1 (centres undefined) | -9.36%
56 | CN(Cc1ccco1)C[C@H]1OC[C@@H]2CCN(Cc3cccs3)C[C@@H]21 | -13.4%
57 | CC(c1ccc(F)cc1F)N1CCN(CCC(=O)O)CC1 (centres undefined) | -6.34%
58 | CCCc1n[nH]c(C2CN(Cc3nnc(C4CCC4)o3)CCO2)n1 (centres undefined) | -5.35%
59 | COc1cc(C(=O)NCCc2ccccc2OC)on1 | -1.09%
60 | CCC(=O)NC1CCN(c2cccc(CC)c2)CC1 | 38.9%
61 | Cc1cccnc1Nc1nccc(C2CN(CC(N)=O)C2)n1 | -3.23%
62 | CC(C)n1cnnc1CN(C)Cc1cnc(-c2cccs2)nc1 | 0.122%
63 | CCN(Cc1cc(Br)ccc1F)C(=O)C(C)NC(N)=O (centres undefined) | -19.1%
64 | C[C@H](O)c1cnn(-c2ccccc2)c1 | -1.87%
65 | CCN1CC2(CCC1=O)CCN(C(=O)c1ccc(Cl)cc1O)CC2 | -2.93%
66 | Cn1ncc2c1CN(Cc1ccccc1F)CC2COCC1CC1 (centres undefined) | 23.7%
67 | CNC(=O)CCc1cccc(C2CCCN(c3cc(C)ncn3)C2)n1 (centres undefined) | -2.33%
68 | CC(C)NC(=O)Nc1ccc(CNCc2cccc(OC(F)F)c2)cc1 | 29.1%
69 | CCC1=N[C@@]2(CC[C@@H]3CN(CC)C[C@@H]32)C(=O)N1C | 7.11%

Row | Compound | cytotoxicity at 70.5 h
70 | COCCn1c(-c2cccc(OC)c2)cnc1NC(=O)NC1CCCC1 | 6.84%
71 | CCO[C@@H]1CO[C@@]2(CCCN(Cc3scnc3C)C2)C1 | -11.1%
72 | Cc1ccc(NC(=O)NCC2(N3CCOCC3)CCSC2)c(C)c1 (centres undefined) | 8.25%
73 | Cc1ncsc1CN1CCn2c(COc3cccnc3)cnc2C1C (centres undefined) | -2.69%
74 | Cc1cc(NCC2CC(=O)Nc3ccccc32)nc(C)n1 (centres undefined) | -1.89%
75 | CC(C1CCN(C(=O)c2coc(CN3CCOCC3)c2)CC1)N(C)C (centres undefined) | -1.57%
76 | CSc1cccc(CN(C)C(=O)CN2CCN(c3ncccn3)CC2)c1 | -8.23%
77 | Cc1ccc2oc(CNC(C)c3nnc4n3CCCC4)cc2c1 (centres undefined) | 5.79%
78 | CCC(C)N1C(=O)c2ccc(C(=O)NCCc3c[nH]cn3)cc2C1=O (centres undefined) | -2.09%
79 | CC(=O)c1cccc(OCCCC(=O)N(C)C2CCN(C)CC2)c1 | -7.34%
80 | CC(=O)N[C@H]1CCO[C@@H](c2cccc(NC(=O)c3cccc(F)c3)c2)C1 | -8.41%
81 | CC(=O)c1c(C)nn(S(=O)(=O)c2ccc(C)c(C)c2)c1C | -0.468%
82 | CC(c1cccnc1)N(C)Cc1cc2cc3c(cc2[nH]c1=O)OCO3 (centres undefined) | 2.59%
83 | Cc1ccc(F)c(C(=O)Nc2c(C(N)=O)n[nH]c2C)c1 | -10.1%
84 | Cc1nnc2n1CCN(Cc1csc(-c3ccc(F)cc3)n1)C2 | -12.1%
85 | CNC(=O)N1CCc2cc(C(=O)N(C)C)c(NCC3CC3)nc2CC1 | -12%
86 | Cc1nccn1CCC1CCCCN1Cc1ccc2c(c1)OCCO2 (centres undefined) | 14.5%
87 | Cc1nnc2n1CCN(Cc1nc(-c3ccoc3)no1)C2 | 13.6%
88 | CCOCC1COCCC12CCN(C(=O)CS(C)(=O)=O)CC2 (centres undefined) | -4.64%
89 | CC(Oc1ccc2c(c1)OCO2)C(=O)Nc1ccon1 (centres undefined) | -6.17%
90 | CCN(CC)CC[C@H]1CN(C(=O)c2ccc(F)cc2)CC[C@H]1CC(=O)O | -2.08%
91 | CCN1CCC2(CC1)CN(CCO)c1ccccc12 | 21.2%
92 | O=C(CCc1cccs1)N1CCCC(N2CCNC2=O)C1 (centres undefined) | -5.71%

Row | Compound | cytotoxicity at 70.5 h
93 | c1csc(CNCC2COCc3c(-c4ccsc4)nnn3C2)n1 (centres undefined) | -7.15%
94 | CCC(O)(CNCc1cc[nH]n1)c1ccc(Br)cc1 (centres undefined) | 6.78%
95 | COc1cc2ccn(CCCO)c(=O)c2cc1F | -6.17%
96 | COCc1cccc(NC(C(N)=O)c2ccc(Br)cc2)c1 (centres undefined) | -9.42%
97 | CCc1nc(C)c(CN2CCCC(c3nn(C)c(=O)n3CC)C2)[nH]1 (centres undefined) | -6.96%
98 | COCCNC(=O)C[C@@H]1COC[C@H]2CN(C(=O)c3cnccn3)C[C@@H]12 | -6.71%
99 | Clc1ccc(-c2nc(CN3CCCC3Cn3cncn3)co2)cc1 (centres undefined) | -1.1%
100 | c1csc(CN2CCC3(CC2)CCN(CC2CCOCC2)C3)n1 | 0.161%
101 | O=C(NCCOc1ccccc1)NCC(O)c1cccs1 (centres undefined) | -11.8%
102 | O=C(C1CC1)N1CCN2C[C@H](c3ccccc3)[C@@H](CO)[C@H]2C1 | -5.2%
103 | Cc1nnc(CN(C)S(=O)(=O)c2ccc(Br)cc2Cl)n1C | -8.93%
104 | CCc1nnsc1C(=O)NCc1nnc2n1CCCCC2 | -3.94%
105 | CNc1ccc(C2CN(c3nc(C)cc(C)n3)CCO2)nc1 (centres undefined) | -2.83%
106 | COc1cc(C)cc(C(C(=O)O)N(C)CCN2CCCC2)c1OC (centres undefined) | -2.88%
107 | O=C(NCC1CC1)c1cc2c(s1)CCN2C(=O)c1cccnc1 | -8.04%
108 | CCNC(=O)N1CC[C@H]2CC(=O)N(C3CCCCC3)CC[C@H]2C1 | -5.33%
109 | NC(=O)N1CCCN(CCc2nc(-c3cccc(Cl)c3)no2)CC1 | 4.65%
110 | CC(C)c1noc(CN2CCC(C3CCCCCN3S(C)(=O)=O)CC2)n1 (centres undefined) | 11%
111 | CCN1CC(C(=O)N2CCC(Oc3ccccc3Cl)CC2)CC1=O (centres undefined) | 4.13%
112 | FC(F)(F)c1ccc2nc([C@H]3CCN(C4CCC4)C3)[nH]c2c1 | -7.81%
113 | CC(C)(O)CCc1ccc(C(=O)N2CCN(CC(F)(F)F)CC2)cc1 | 3.68%
114 | Cc1ncc(CNC(=O)Cc2cccs2)c(C2CCCN2C)n1 (centres undefined) | -4.94%
